Article PMC9223267, “Serine hydroxymethyltransferase as a potential target of antibacterial agents acting synergistically with one-carbon metabolism-related inhibitors” (Communications Biology, 2022)
Where “and” joins values, the source holds several entries; their conditions need not be identical. Equal values may be shown once. Read-outs that look alike come from different tables or passages of the source.

Tests used:
E. faecium [1] = assay: Antibacterial activity evaluation (turbidity, OD600); type: cell-based, Enterococcus faecium (JCM5804); settings: Enterococcus faecium
Method: (§1) E. faecium and E. faecalis were diluted to turbidity equivalents that matched 1.0 McFarland (McF) standard in distilled water (S. aureus and E. coli were also diluted to 0.5 McF), and additionally diluted 1:200 in Mueller–Hinton (MH) broth. The designated concentrations of the tested compounds were prepared by ten-fold serial dilutions directly in 96-well microtiter plates (IWAKI, Shizuoka, Japan), as previously described. […] The other compounds were serially diluted from 20 μM downwards (final concentration, 10 μM). […] Positive control wells included bacteria without any compound, and the negative control wells only contained MH broth. […] The optical density at 600 nm (OD600) was measured using a GloMax microtiter plate reader (Promega, WI, USA), and the EC50 values of each test compound and standard error were calculated by Microsoft Excel function, AVERAGE and STDEV/SQRT.

E. faecalis = assay: as above; type: cell-based, Enterococcus faecalis (JCM7783); settings: Enterococcus faecalis, E. faecalis JCM7783
Method: as §1

S. aureus = assay: as above; type: cell-based, Staphylococcus aureus (ATCC29213); settings: Staphylococcus aureus, S. aureus ATCC29213
Method: as §1

E. coli = assay: as above; type: cell-based, Escherichia coli (ATCC25922); settings: Escherichia coli, E. coli ATCC25922
Method: as §1

E. faecium [2] = assay: Antibacterial assay with an excess concentration of biomolecules (Ser, Gly, inosine, dT, FA); type: cell-based, Enterococcus faecium (JCM5804); settings: Enterococcus faecium
Method: as §1
The ratio of the control EC50 (no competitors added) to the experimental EC50 (competitors added) was calculated for each test substance.

efmSHMT [3] = type: binding, Enterococcus faecium; settings: DSF; final drug concentration 50 μM
Method: Protein samples were prepared as 20 μL aliquots containing 0.1 mg/mL protein (efmSHMT/ecSHMT), 1 μL of the ligand in DMSO (final drug concentration, 50 μM) and 2% or 4% SYPRO Orange (Invitrogen, MA, USA). […] Melting points were evaluated as the half-point of the maximum intensity of each curve.

efmSHMT [4] = molecular target: efmSHMT (Enterococcus faecium, UniProt I3U4H4, M1V); assay: biochemical; type: binding; settings: 5 μM efmSHMT, 10 mM Gly and 100 μM Ser
Method: After adding Me-THF, the efmSHMT solution was incubated for 30 min at room temperature. The optical density at 500 and 600 nm (OD500 and OD600) were then measured using a nanodrop spectrophotometer[24],[25]. OD600 was used as the background. After detection, each concentration of inhibitor was added to the efmSHMT solution and incubated for 30 min at room temperature. OD500 and OD600 were measured. The relative OD500 intensity was calculated as relative OD500 = (OD500 – OD600)/(MAXOD500 – OD600), where MAXOD500 is the average OD500 value in the presence of 1000, 2000 and 4000 μM Me-THF without inhibitors. […] Here, IC50 is the concentration of inhibitor added to the efmSHMT solution and [Me-THF] is the EC50 in the presence of the inhibitor concentration. [EC50 without inhibitor] is the EC50 of Me-THF in the absence of the inhibitor.

E. faecium [5] = assay: Bacterial viability assay (Microbial Viability Assay Kit-WST, OD450); type: cell-based, Enterococcus faecium
Method: Living E. faecium were determined using the Microbial Viability Assay Kit-WST (DOJINDO, Tokyo, Japan). […] Positive control wells included bacteria seeded into MH broth without compounds, and the negative control wells contained MH broth only. […] Five microlitres of the colouring reagent were added to each well of the 96-well plate every 2 h after starting incubation with each compound.

Caski cells = assay: Cell cytotoxicity assay (Cell Counting Kit-8, 5 days); type: cell-based, human; settings: with each cell line (Caski, Hep-2 and Calu-3)
Method: After serial dilution, 100 μL of FBS-containing medium including the cells was added to each well of the plate. […] All CC50 determining assays were conducted in duplicate or triplicate[39],[40].

[6] = E. faecium JCM5804, read-out: EC50
[7] = E. faecium JCM5804, read-out: pEC50 ± S.E. (converted)
[8] = read-out: pEC50 ± S.E. (converted)
[9] = JCM5804, E. faecium JCM5804, 1 mM Inosine, read-out: EC50
[10] = JCM5804, E. faecium JCM5804, 1 mM Inosine, read-out: pEC50 ± S.E. (converted)
[11] = JCM5804, E. faecium JCM5804, 1 mM deoxythymidine, read-out: EC50
[12] = JCM5804, E. faecium JCM5804, 1 mM deoxythymidine, read-out: pEC50 ± S.E. (converted)
[13] = JCM5804, E. faecium JCM5804, 10 mM Glycine, read-out: EC50
[14] = JCM5804, E. faecium JCM5804, 10 mM Glycine, read-out: pEC50 ± S.E. (converted)
[15] = JCM5804, E. faecium JCM5804, 100 mM Serine, read-out: EC50
[16] = JCM5804, E. faecium JCM5804, 100 mM Serine, read-out: pEC50 ± S.E. (converted)
[17] = JCM5804, E. faecium JCM5804, 0.1 M folate, read-out: EC50
[18] = JCM5804, E. faecium JCM5804, 0.1 M folate, read-out: pEC50 ± S.E. (converted)

Chain of efmSHMT (Enterococcus faecium, UniProt I3U4H4, M1V) (I3U4H4 whole entry M1V): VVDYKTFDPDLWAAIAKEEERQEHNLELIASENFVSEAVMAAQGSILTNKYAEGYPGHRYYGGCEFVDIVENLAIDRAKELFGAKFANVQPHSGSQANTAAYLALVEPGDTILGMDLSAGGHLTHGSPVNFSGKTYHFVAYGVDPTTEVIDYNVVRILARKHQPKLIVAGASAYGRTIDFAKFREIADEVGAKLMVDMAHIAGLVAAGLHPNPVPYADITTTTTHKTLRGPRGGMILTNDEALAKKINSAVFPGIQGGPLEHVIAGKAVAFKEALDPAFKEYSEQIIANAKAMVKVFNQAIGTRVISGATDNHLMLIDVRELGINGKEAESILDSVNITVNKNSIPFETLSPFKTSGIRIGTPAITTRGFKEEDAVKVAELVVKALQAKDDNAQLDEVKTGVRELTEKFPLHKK

SMILES | EC50 (E. faecium [1]; [6]) [nM] | EC50 (E. faecium [1]; [7]) [nM] | EC50 (E. faecalis; read-out: EC50) [nM] | EC50 (E. faecalis; [8]) [nM] | EC50 (S. aureus; read-out: EC50) [nM] | EC50 (S. aureus; [8]) [nM] | EC50 (E. coli; read-out: EC50) [µM] | EC50 (E. coli; [8]) [µM] | EC50 (E. faecium [2]; [9]) [nM] | EC50 (E. faecium [2]; [10]) [nM] | EC50 (E. faecium [2]; [11]) [nM] | EC50 (E. faecium [2]; [12]) [nM] | EC50 (E. faecium [2]; [13]) [nM] | EC50 (E. faecium [2]; [14]) [nM] | EC50 (E. faecium [2]; [15]) [nM] | EC50 (E. faecium [2]; [16]) [nM] | EC50 (E. faecium [2]; [17]) [nM] | EC50 (E. faecium [2]; [18]) [nM] | also measured
O=c1[nH]c(=O)n([C@H]2C[C@H](O)[C@@H](CO)O2)cc1F [5-FdU, 5-fluoro-2′-deoxyuridine] | 29 | 31.6 | 310 | 316 | 8.9 | 7.94 | 10 | 10 | 24 | 25.1 | > 100000 | > 100000 | 6.4 | 6.31 | 32 | 31.6 | 190 | 200 | –
Nc1nc2[nH]cc(CCc3ccc(C(=O)N[C@@H](CCC(=O)O)C(=O)O)cc3)c2c(=O)[nH]1 [PMX, pemetrexed] | – | – | > 100000 | > 100000 | > 100000 | > 100000 | > 100 | > 100 | 0.074 | 0.0794 | > 100000 | > 100000 | 0.062 | 0.0631 | 0.25 | 0.251 | 1800 | 2000 | EC50 (E. faecium [1]; JCM5804, E. faecium JCM5804, read-out: EC50): 0.052 nM; EC50 (E. faecium [1]; JCM5804, E. faecium JCM5804, read-out: pEC50 ± S.E. (converted)): 0.0501 nM; ΔTm (thermal stability of efmSHMT) (efmSHMT [3]): 0.9 °C; Ki (efmSHMT [4]; Ki, Cheng-Prusoff): 117 µM; Ki (efmSHMT [4]; pKi ± pSE): 126 µM
COc1cc(Cc2cnc(N)nc2N)cc(OC)c1OC [TMP, trimethoprim] | 2.8 | 2.51 | 270 | 251 | 290 | 316 | 0.17 | 0.158 | – | 2.51 | 54000 | 50100 | 2.1 | 2 | 3.3 | 3.16 | 41 | 50.1 | Relative bacterial viability (E. faecium [5]; 2 nM, 0 hours, single values): 0.02108 and 0.02214 and 0.02363 and 0.02319 and 0.01396 and 0.01461 and 0.0211 and 0.02201; Relative bacterial viability (E. faecium [5]; 2 nM, 2 hours, single values): 0.03256 and 0.03276 and 0.0358 and 0.03793 and 0.02817 and 0.0276 and 0.03152 and 0.02983; Relative bacterial viability (E. faecium [5]; 2 nM, 8 hours, single values): 0.6778 and 0.6938 and 0.7383 and 0.6754 and 0.6268 and 0.6594 and 0.6905 and 0.6243; Relative bacterial viability (E. faecium [5]; 2 nM, 10 hours, single values): 0.7078 and 0.7215 and 0.7487 and 0.6774; Relative bacterial viability (E. faecium [5]; 2 nM, 12 hours, single values): 0.7931 and 0.8524 and 0.8435 and 0.6543 and 0.7061 and 0.7294 and 0.7396 and 0.7126; Relative bacterial viability (E. faecium [5]; 2 nM, 14 hours, single values): 0.8722 and 0.7867 and 0.9195 and 0.9126 and 0.8033 and 0.8796 and 0.8243 and 0.8853; Relative bacterial viability (E. faecium [5]; 20 nM, 0 hours, single values): 0.02896 and 0.02213 and 0.01772 and 0.01904 and 0.02117 and 0.02218 and 0.02462 and 0.0192; Relative bacterial viability (E. faecium [5]; 20 nM, 2 hours, single values): 0.03873 and 0.03054 and 0.0347 and 0.03215 and 0.02983 and 0.02843 and 0.03279 and 0.02955; Relative bacterial viability (E. faecium [5]; 20 nM, 4 hours, single values): 0.0705 and 0.06896 and 0.0607 and 0.07039 and 0.05304 and 0.06167 and 0.06352 and 0.06901; Relative bacterial viability (E. faecium [5]; 20 nM, 6 hours, single values): 0.09036 and 0.1064 and 0.1059 and 0.1127 and 0.1209 and 0.1443 and 0.152 and 0.1417; Relative bacterial viability (E. faecium [5]; 20 nM, 8 hours, single values): 0.1279 and 0.1203 and 0.1189 and 0.109 and 0.09529 and 0.09698 and 0.1178 and 0.11; Relative bacterial viability (E. faecium [5]; 20 nM, 10 hours, single values): 0.1127 and 0.1159 and 0.1045 and 0.09171 and 0.08771 and 0.09868 and 0.1124 and 0.1197; Relative bacterial viability (E. faecium [5]; 20 nM, 12 hours, single values): 0.09851 and 0.09831 and 0.1104 and 0.1131 and 0.09658 and 0.1085 and 0.1167 and 0.1091; EC50 (E. faecium [5]; Enterococcus faecium, relative bacterial viability after 14 h incubation): 8.8 nM; selectivity index (S.I.): CC50 against each cell line / EC50 against E. faecium (Caski cells): high bacterial selectivity
CN[C@H](CC(C)C)C(=O)N[C@H]1C(=O)N[C@@H](CC(N)=O)C(=O)N[C@H]2C(=O)N[C@H]3C(=O)N[C@H](C(=O)N[C@H](C(=O)O)c4cc(O)cc(O)c4-c4cc3ccc4O)[C@H](O)c3ccc(c(Cl)c3)Oc3cc2cc(c3O[C@@H]2O[C@H](CO)[C@@H](O)[C@H](O)[C@H]2O[C@H]2C[C@](C)(N)[C@H](O)[C@H](C)O2)Oc2ccc(cc2Cl)[C@H]1O [VCM, vancomycin] | – | – | – | – | – | – | – | – | – | – | – | – | – | – | – | – | – | – | EC50 (E. faecium [1]; VCM in μg/mL, E. faecium JCM5804, read-out: EC50): 0.31 µg/mL; EC50 (E. faecalis; VCM in μg/mL, read-out: EC50): 3.2 µg/mL; EC50 (S. aureus; VCM in μg/mL, read-out: EC50): 0.36 µg/mL; EC50 (E. coli; VCM in μg/mL, read-out: EC50): > 100 µg/mL; EC50 (E. faecium [2]): 0.29 µg/mL; EC50 (E. faecium [2]; VCM in μg/mL, 1 mM Inosine, read-out: EC50): 0.34 µg/mL; EC50 (E. faecium [2]; VCM in μg/mL, 1 mM deoxythymidine, read-out: EC50): 0.42 µg/mL; EC50 (E. faecium [2]; VCM in μg/mL, 100 mM Serine, read-out: EC50): 0.3 µg/mL; EC50 (E. faecium [2]; VCM in μg/mL, 0.1 M folate, read-out: EC50): 0.31 µg/mL
NCC(=O)O [glycine] | – | – | – | – | – | – | – | – | – | – | – | – | – | – | – | – | – | – | Relative bacterial viability (E. faecium [5]; 50 mM glycine (Supplementary Fig. S2)): ~ 0.75; Relative bacterial viability (E. faecium [5]; 100 mM glycine (Supplementary Fig. S2)): ~0.40
Cc1nc2ccc(CN(C)c3ccc(C(=O)N[C@@H](CCC(=O)O)C(=O)O)s3)cc2c(=O)[nH]1 [RTX, raltitrexed] | 13 | 12.6 | > 100000 | > 100000 | > 100000 | > 100000 | > 100 | > 100 | 8.2 | 7.94 | > 100000 | > 100000 | 10 | 10 | 14 | 12.6 | > 100000 | > 100000 | –
O=c1[nH]c(=O)n([C@@H]2O[C@H](CO)[C@@H](O)[C@H]2O)cc1F [5-FUrd, 5-fluorouridine] | 73 | 79.4 | 380 | 398 | 30 | 31.6 | 10 | 10 | 720 | 794 | 21000 | 20000 | 65 | 79.4 | 98 | 100 | 270 | 251 | –
